Measured values as given in patent US8486464B2, “Herbal composition for angina pectoris, method to prepare same and uses thereof” (Tasly Pharmaceutical Group Co. Ltd., priority 2000, dated 2013).

Experiments:
non-symptomatic M-IR = experiment: Non-symptomatic M-IR, DSP vs Nifedipine; assay type: in vivo, human; settings: for Efficacy (Number) / Obvious Efficacy (Number): n = 52
Text: 1. Clinical sample. 52 patients were in the treatment group, which included 39 patients with coronary heart disease, and 4 patients with M-IR, and 9 patients with positive results on the exercise test. There were 38 males and 14 females. 52 patients were in the control group, which included 43 patients with coronary heart disease, 6 patients with M-IR, and 3 patients with positive results on the exercise test. There were 34 males and 18 females (Both groups followed the WHO M-IR-Related Heart Disease and Standard established in 1979).
2. Method of treatment. DSP was given to the treatment group, 10 tablets/medication, 3 times/day. […] Both medications lasted for 4 weeks, and all medications related to the treatment of M-IR were stopped.
3. Result standard. Efficient: Change of ECG ST-T was close to normal; Better: Decreased section ST rose 0.5 mm or more, transverse wave T changed to vertical ones, inverted wave changed 25% or more, conducting resistance was improved; Failure: There was no difference in ECGs before and after treatment.

[1] = tested on: angina caused by coronary heart disease; experiment: Senior group angina, DSP vs Nifedipine
Procedure: • 1.1 Subjects. […] Medications were taken for 30 days. Patients in both groups used Yongbaoling spray under their tongues during acute onset of symptoms. […] Onset frequency, duration, number of times Yongbaoling was sprayed each day, 12-lead ECG, blood pressure, heartbeat, normal blood urea, liver and kidneys function, and lipoproteins in blood and blood viscosity both before and after treatment. • 1.4 Statistical analysis. The results were measured by t statistic testing, calculated by x^2 statistic testing. • 2. Confirmation of results. Onset frequency and duration with a decrease of 80% or more was regarded as obvious efficacy. A decrease of 50% or more was regarded as efficacy. A decrease of 50% or less was regarded as a failure. Changes in NST and ΣST before and after treatment were used to observe ECG improvement. NST represented the low-pressure 12-lead numbers in section ST; ΣST represented the sum of all low pressure numbers in section ST of 12-lead. Results

[2] = tested on: coronary heart disease and angina; experiment: Clinical summary: coronary heart disease and angina (Table 1-1); assay type: in vivo, human; settings: Affiliated Hospital Anhui College of TCM, 46 cases
Procedure: After DSP came onto the market in China, a large-scale clinical research project was conducted in China. Although different prescriptions were used in different research projects, all conclusions are written according to “Method of DSP clinic study.” All clinical and experimental markers were standardized. A simplified summary of the results is shown below in Table 1-1.

[3] = clinical results after 30 days, cases (%)

Question: What does the source list for `COC(=O)C1=C(C)NC(C)=C(C(=O)OC)C1c1ccccc1[N+](=O)[O-]` [Nifedipine]?
Answer: Efficacy (%) (non-symptomatic M-IR; 1st week): 25.0%; Efficacy (Number) (non-symptomatic M-IR; 1st week): 5; Obvious Efficacy (Number) (non-symptomatic M-IR; 1st week): 8; Efficacy (%) (non-symptomatic M-IR; 2nd week): 30.8%; Efficacy (Number) (non-symptomatic M-IR; 2nd week): 6; Obvious Efficacy (Number) (non-symptomatic M-IR; 2nd week): 10; Efficacy (%) (non-symptomatic M-IR; 3rd week): 34.6%; Efficacy (Number) (non-symptomatic M-IR; 3rd week): 7; Obvious Efficacy (Number) (non-symptomatic M-IR; 3rd week): 11; Efficacy (%) (non-symptomatic M-IR; 4th week): 38.5%; Efficacy (Number) (non-symptomatic M-IR; 4th week): 8; Obvious Efficacy (Number) (non-symptomatic M-IR; 4th week): 12; Side-effects: felt pain ([1]; 20 patients, 30 days): 3 patients; Side-effects: slow heartbeat ([1]; 20 patients, 30 days): 1 patients; Side-effects: swollen ankles ([1]; 20 patients, 30 days): 2 patients; NST ([1]; after treatment): 3.90 ± 1.13; Number of Yongbaoling sprays per day ([1]; after treatment): 2.2 ± 0.8; NST ([1]; before treatment): 4.20 ± 1.25; Number of Yongbaoling sprays per day ([1]; before treatment): 3.21 ± 1.1; Total efficacy, % ([1]; clinical results after 30 days): 60%; Efficacy [1, 3]: 4 (20.00) %; Failure [1, 3]: 8 (40.00) %; Obvious Efficacy [1, 3]: 8 (40.00) %; Clinical efficacy % [2]: Nifedipine(32; 75%;; ECG-Efficacy % [2]: 43.8%)
